# Assay results reported in the supplement of paper PMC11208160.
# Assay: recombinant UMI read abundance after kanamycin selection (control-corrected) (log10(CPM+1)); higher = more efficient recombination; extreme values may be limits of the assay; sequences stand for … in AGTGCAGAGAAAATCGGCCAGTTTTCTCTGCCTGCAGTCCGCATGCCGTGGGACCCCTTGGGTTCTAACCTGTTGCCTAGATTTATGCAGCGGACTGCCTTTCTCCCAAAGTGATAAACCGG…AGGTTGGTTTCACT; site = the 11-nt donor
# How it was run: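 After plating on IPTG (0.07 mM) plus kanamycin, or unselected, in two replicates, recombinant UMIs were PCR-amplified across the donor–target junction and sequenced. The cells were Escherichia coli co-electroporated with a UMI-tagged donor and donor-binding-loop pair library and a target plasmid with a fixed target and T7-inducible IS621 bridge recombinase. Values are log10(CPM+1), with CPM averaged over replicates and scaled by control-derived factors.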
row,Sequence,recombinant UMI read abundance (log10)
1,ACACATCCATGGACCGGTTTTCCCGGTAATCCGTATTTGAC (site ACACAGCCTGT),0.424
2,AATGGATCATGGACCGGTTTTCCCGGTAATCCGTATTTGAA (site AATGGATCTTT),2.07
3,TCATACTCATGGACCGGTTTTCCCGGTAATCCGTATTTGCT (site TCATACTCTCG),0
4,CGAGGCCCATGGACCGGTTTTCCCGGTAATCCGTATTTGGG (site CGAGGGCCTCC),0.016
5,ATGCAAGCATGGACCGGTTTTCCCGGTAATCCGTATTTGAG (site ATACAAGCTCT),2.24
6,GGTACCTCATGGACCGGTTTTCCCGGTAATCCGTATTTGTT (site GGTACTTCTAA),0.00378
7,TGTCCAACATGGACCGGTTTTCCCGGTAATCCGTATTTGTA (site CGTCCAACTTA),0.338
8,CTATCATCATGGACCGGTTTTCCCGGTAATCCGTATTTGCT (site CTATCATCTAG),2.06
9,CGTTAGACATGGACCGGTTTTCCCGGTAATCCGTATTTGAA (site CGTTAGACTCT),0.00762
10,CGAGAGTCATGGACCGGTTTTCCCGGTAATCCGTATTTGCC (site CGAGAGTCTGG),3.37
11,AGAGCTTCATGGACCGGTTTTCCCGGTAATCCGTATTTGGA (site AGAGCTTCTTC),2.31
12,AGTAAGGCATGGACCGGTTTTCCCGGTAATCCGTATTTGCT (site AGAAAGGCTAG),1.39
13,CACTACACATGGACCGGTTTTCCCGGTAATCCGTATTTGCT (site CACTACACTAG),2.44
14,CATGGCTCATGGACCGGTTTTCCCGGTAATCCGTATTTGCG (site CATGGCTCTCG),2.15
15,CGAATGGCATGGACCGGTTTTCCCGGTAATCCGTATTTGCG (site GAGGGCACTAT),0.0326
16,CAATGTTCATGGACCGGTTTTCCCGGTAATCCGTATTTGAA (site CAATGTTCTTT),2.11

row,Sequence,recombinant UMI read abundance (log10)
1,CAAGCTGCATGGACCGGTTTTCCCGGTAATCCGTATTTGCT (site CAAGCAGCTAG),0.397
2,GCTGCAGCATGGACCGGTTTTCCCGGTAATCCGTATTTGTC (site GCTGCAGCTGA),2.59
3,AGCCTAGCATGGACCGGTTTTCCCGGTAATCCGTATTTGAT (site AGCCTAGCTAT),0.0107
4,AGGAAGACATGGACCGGTTTTCCCGGTAATCCGTATTTGGT (site AGGAAGACTAC),2.1
5,ACTAGAACATGGACCGGTTTTCCCGGTAATCCGTATTTGAG (site AGTAGAACTCT),0.227
6,ATGTAGGCATGGACCGGTTTTCCCGGTAATCCGTATTTGGC (site AAGTAGGCTGC),1.22
7,TTAATTCCATGGACCGGTTTTCCCGGTAATCCGTATTTGTT (site TTAATTCCTAA),0.0021
8,CAGCCGACATGGACCGGTTTTCCCGGTAATCCGTATTTGGG (site CAGCCGACTCC),0.188
9,ACAGTATCATGGACCGGTTTTCCCGGTAATCCGTATTTGAC (site ACAGTATCTTG),1.15
10,GTTGGAGCATGGACCGGTTTTCCCGGTAATCCGTATTTGCA (site GTTCGAGCTTG),0
11,AATTATGCATGGACCGGTTTTCCCGGTAATCCGTATTTGAA (site AATTATGCTTT),0.313
12,CTCTACGCATGGACCGGTTTTCCCGGTAATCCGTATTTGCT (site CTCTACCCTAG),0
13,GTGGTGGCATGGACCGGTTTTCCCGGTAATCCGTATTTGTG (site GTGGAGGCTCA),0.789
14,GGAGTAGCATGGACCGGTTTTCCCGGTAATCCGTATTTGGT (site GGAGTAGCTAC),1.18
15,AGCCTACCATGGACCGGTTTTCCCGGTAATCCGTATTTGTT (site AGCCTACCTAA),0.0133
16,AACCTTTCATGGACCGGTTTTCCCGGTAATCCGTATTTGAC (site ATCCTTTCTGT),0
